Measured values published in patent US12312376B2 (priority 2020, dated 2025).
Where two headings read alike, the source gives them in different places.

Columns and labels:
[1] = Intranasal safety profile of rintatolimod compared with EC90; format: in vivo, humans; conditions: dose concentration 2500 μg/ml (45×EC90)
[2] = test system: normal, human-derived tracheal/bronchial epithelial (TBE) cells
[3] = Clinical trials of tdsRNA (safety); format: in vivo
Excerpt: tdsRNA has undergone extensive clinical and preclinical testing. […] Favorable safety profiles have been seen for intraperitoneal, intravenous, and intranasal routes of administration of tdsRNA.

[4] = over 1,200 patients, over 100,000 doses administered

rIn•r(C12U)n [Rintatolimod]
Intranasal tolerability in humans [1]: well tolerated in humans | cellular toxicity ([2]; 0.5 mg/mL): 0% | cellular toxicity ([2]; 1.5 mg/mL): 0% | cytotoxic ([2]; 4.5 mg/mL): 12% | cytotoxic ([2]; 10 mg/mL): 47% | drug-related deaths [3, 4]: no drug-related deaths | tolerability in clinical trials [3, 4]: generally well-tolerated | serious adverse events compared to placebo ([3]; two placebo-controlled, randomized studies): no increase in serious adverse events compared to placebo
